Laboratory results reported in patent publication US20250144067A1, “PERSONALIZED STARVATION THERAPY FOR CANCER” (Faeth Therapeutics, Inc., priority 2021, published 2025).
Where a name gives a salt, the structure may show the parent alone.

Columns and labels:
[1] = tested on: NCI-H292 lung cancer cells; experiment: FDA drug screening, complete media vs cholesterol-free media without statin (TABLE 1); assay type: cell-based, human
[2] = tested on: NCI-H292 lung cancer cells; experiment: FDA drug screening, complete media vs cholesterol-free media with simvastatin (TABLE 2); assay type: cell-based, human; settings: for Cholesterol-free media + simvastatin (0.04 μM) / Complete Media: NCI-H292 cells
[3] = NCI-H292 cells, cholesterol-free media without statin, FDA drug library screen
[4] = NCI-H292 cells, complete media, FDA drug library screen
[5] = complete vs cholesterol-free media, […]
[6] = FDA drug library screen, cholesterol-free media with simvastatin 0.04 μM
[7] = FDA drug library screen, complete media
[8] = complete media vs cholesterol-free media + simvastatin (0.04 μM), […]
[9] = Complete minus Cholesterol-free, greater than 0 enhanced anti-cancer activity, about 0 neutral, below 0 antagonist
[10] = NCI-H292 cells, FDA drug library screen, cholesterol-free media without statin
[11] = NCI-H292 cells, FDA drug library screen, complete media
[12] = FDA library drug in cholesterol-free media with simvastatin 0.04 μM
[13] = FDA library drug in complete media
[14] = complete media vs cholesterol-free media + simvastatin (0.04 μM), >0 enhanced anti-cancer activity, about 0 neutral, <0 antagonist
[15] = Complete minus Cholesterol-free, >0 enhanced anti-cancer activity, about 0 neutral, <0 antagonist
[16] = NCI-H292 cells, cholesterol-free media without statin
[17] = Complete minus Cholesterol-free, greater than 0 enhanced anti-cancer activity, about 0 neutral, below 0 antagonists
[18] = NCI-H292 cells in cholesterol-free media without statin
[19] = NCI-H292 cells in complete media
[20] = complete media minus cholesterol-free media + simvastatin, >0 enhanced anti-cancer activity, about 0 neutral, <0 antagonist
[21] = cholesterol-free media with simvastatin 0.04 μM, FDA drug library screen (TABLE 2)
[22] = complete media, FDA drug library screen (TABLE 2)
[23] = complete media minus cholesterol-free media + simvastatin (0.04 μM), >0 enhanced anti-cancer activity, about 0 neutral, <0 antagonist
[24] = cholesterol-free media with simvastatin 0.04 μM, cell growth value in FDA drug screen
[25] = complete media, cell growth value in FDA drug screen
[26] = drug in cholesterol-free media with simvastatin 0.04 μM

CCN(CC)CCNC(=O)c1ccc(NC(C)=O)cc1 [N-Acetylprocainamide]
Cholesterol-free [1, 3]: 1.279 | Complete [1, 4]: 1.656 | Difference [1, 5]: 0.38 | Cholesterol-free media + simvastatin (0.04 μM) [2, 6]: 0.9234 | Complete Media [2, 7]: 0.8479 | Difference [2, 8]: −0.08

COc1ccc2cc(CCC(C)=O)ccc2c1 [Nabumetone]
Difference [1, 9]: −0.18 | Cholesterol-free [1, 10]: 1.034 | Complete [1, 11]: 0.8533 | Cholesterol-free media + simvastatin (0.04 μM) [2, 12]: 1.525 | Complete Media [2, 13]: 1.112 | Difference [2, 14]: −0.41

CC1CCc2c(N3CCC(O)CC3)c(F)cc3c(=O)c(C(=O)O)cn1c23 (centres unmarked) [Nadifloxacin]
Difference [1, 15]: −0.03 | Cholesterol-free [1, 3]: 0.9891 | Complete [1, 4]: 0.9558 | Cholesterol-free media + simvastatin (0.04 μM) [2, 12]: 1.859 | Complete Media [2, 13]: 1.054 | Difference [2, 14]: −0.80

CC(C)(C)NCC(O)COc1cccc2c1CC(O)C(O)C2 (centres unmarked) [Nadolol]
Difference [1, 15]: −0.30 | Cholesterol-free [1, 16]: 1.37 | Complete ([1]; NCI-H292 cells, complete media): 1.069 | Cholesterol-free media + simvastatin (0.04 μM) [2, 12]: 1.308 | Complete Media [2, 13]: 1.014 | Difference [2, 14]: −0.29

CCOc1ccc2ccccc2c1C(=O)N[C@@H]1C(=O)N2[C@@H]1SC(C)(C)[C@@H]2C(=O)O [Nafcillin (sodium monohydrate)]
Difference [1, 17]: −1.00 | Cholesterol-free [1, 18]: 1.957 | Complete [1, 19]: 0.9538 | Cholesterol-free media + simvastatin (0.04 μM) [2, 6]: 0.8693 | Difference [2, 20]: 0.30

CCN(CC)CCOC(=O)C(Cc1cccc2ccccc12)CC1CCCO1.O=C(O)C(=O)O (centres unmarked) [Naftidrofuryl (oxalate)]
Difference [1, 15]: −0.04 | Cholesterol-free [1, 3]: 1.015 | Complete [1, 4]: 0.9733 | Cholesterol-free media + simvastatin (0.04 μM) [2, 21]: 1.139 | Complete Media [2, 22]: 1.076 | Difference [2, 23]: −0.06

CN(C/C=C/c1ccccc1)Cc1cccc2ccccc12 [Naftifine (hydrochloride)]
Difference [1, 17]: −0.88 | Cholesterol-free [1, 18]: 1.921 | Complete [1, 19]: 1.037 | Cholesterol-free media + simvastatin (0.04 μM) [2, 6]: 0.9055 | Complete Media [2, 7]: 1.136 | Difference [2, 20]: 0.23

COc1ccccc1N1CCN(CC(O)COc2cccc3ccccc23)CC1 (centres unmarked) [Naftopidil]
Difference [1, 17]: −0.98 | Cholesterol-free [1, 18]: 1.94 | Complete [1, 19]: 0.9592 | Cholesterol-free media + simvastatin (0.04 μM) [2, 24]: 0.6892 | Complete Media [2, 25]: 0.763 | Difference [2, 20]: 0.07

CN(C(=O)/C=C/c1ccoc1)[C@@H]1CC[C@@]2(O)[C@H]3Cc4ccc(O)c5c4[C@@]2(CCN3CC2CC2)[C@H]1O5 [Nalfurafine (hydrochloride)]
Difference ([1]; Complete minus Cholesterol-free, […]): −0.29 | Cholesterol-free [1, 16]: 1.222 | Complete ([1]; NCI-H292 cells, complete media): 0.931 | Cholesterol-free media + simvastatin (0.04 μM) [2, 6]: 1.083 | Complete Media [2, 7]: 0.926 | Difference [2, 8]: −0.16

CCn1cc(C(=O)O)c(=O)c2ccc(C)nc21 [Nalidixic acid]
Cholesterol-free [1, 16]: 1.332 | Complete ([1]; NCI-H292 cells, complete media): 0.9692 | Difference [1, 5]: −0.36 | Cholesterol-free media + simvastatin (0.04 μM) [2, 26]: 1.203 | Complete Media ([2]; drug in complete media): 0.9667 | Difference [2, 8]: −0.24

c1ccc2c(CC3=NCCN3)cccc2c1 [Naphazoline (hydrochloride)]
Difference [1, 15]: −0.26 | Cholesterol-free [1, 16]: 1.189 | Complete ([1]; NCI-H292 cells, complete media): 0.9279 | Cholesterol-free media + simvastatin (0.04 μM) [2, 21]: 0.7495 | Complete Media [2, 22]: 0.6802 | Difference [2, 23]: −0.07

COc1ccc2cc([C@H](C)C(=O)O)ccc2c1 [Naproxen (sodium)]
Cholesterol-free [1, 16]: 1.162 | Complete ([1]; NCI-H292 cells, complete media): 0.8469 | Difference ([1]; complete vs cholesterol-free media, greater than 0 enhanced anti-cancer activity, about 0 neutral, below 0 antagonists): −0.32 | Cholesterol-free media + simvastatin (0.04 μM) [2, 6]: 1.198 | Complete Media [2, 7]: 1.058 | Difference [2, 14]: −0.14

COc1ccc2cc([C@H](C)C(=O)O)ccc2c1 [Naproxen]
Difference [1, 15]: −0.23 | Cholesterol-free [1, 16]: 1.155 | Complete ([1]; NCI-H292 cells, complete media): 0.9257 | Cholesterol-free media + simvastatin (0.04 μM) [2, 24]: 0.9241 | Complete Media [2, 25]: 1.007 | Difference [2, 20]: 0.08

CNS(=O)(=O)CCc1ccc2[nH]cc(C3CCN(C)CC3)c2c1 [Naratriptan (hydrochloride)]
Difference [1, 9]: −0.17 | Cholesterol-free [1, 10]: 1.077 | Complete [1, 11]: 0.9077 | Cholesterol-free media + simvastatin (0.04 μM) [2, 26]: 1.179 | Complete Media ([2]; drug in complete media): 0.9588 | Difference [2, 14]: −0.22
